Values quoted from earlier work as cited in patent publication US10772813B2, “Compositions and methods of administering a colchicine based topical composition for the prevention of radiation fibrosis” (Colradel, LLC, priority 2016, dated 2020).
“Also recorded” adds a separate entry of the source.

Experiments:
fibroblasts = details: low doses
[1] = test system: radiation-induced fibrosis; details: single agent, oral
[2] = topical vs high oral doses

## COc1cc2c(c(OC)c1OC)-c1ccc(OC)c(=O)cc1[C@@H](NC(C)=O)CC2 [colchicine]
fibroblasts
  inhibition of fibroblast migration: 93%
  side effects: without any side effects
0.2% colchicine ointment compared with 0.5%
  concentration in the skin / dermis: same concentration in the dermis 0.5%; also recorded: the same concentration in the skin as 0.5%
0.2% formulation (0.2 gram in 100 ml), transdermal ointment
  side effects: no side effects
ointment, treatment of gout
  transdermal absorption: well-absorbed transdermally

## CC(=O)CCCCn1c(=O)c2c(ncn2C)n(C)c1=O [pentoxifylline, 3,7-dimethyl-1-5-(5-oxohexyl)-xanthine]
[1]
  improvement in late radiation-induced fibrosis: significant improvement

## tocopherol [vitamin E]
[2]
  concentration achievable by topical administration versus high doses orally: 11 times
